Data on 13 compounds can be found in patent US11339130B1 (Blade Therapeutics, Inc., priority 2016, dated 2022).

The structures appear in SMILES notation. Where only a bound is given, the exact number is not on record here.

One test deals with T1, Human Calpain 2/NS1 (Homo sapiens, UniProt P17655).
T1 sequence (P17655 1-700): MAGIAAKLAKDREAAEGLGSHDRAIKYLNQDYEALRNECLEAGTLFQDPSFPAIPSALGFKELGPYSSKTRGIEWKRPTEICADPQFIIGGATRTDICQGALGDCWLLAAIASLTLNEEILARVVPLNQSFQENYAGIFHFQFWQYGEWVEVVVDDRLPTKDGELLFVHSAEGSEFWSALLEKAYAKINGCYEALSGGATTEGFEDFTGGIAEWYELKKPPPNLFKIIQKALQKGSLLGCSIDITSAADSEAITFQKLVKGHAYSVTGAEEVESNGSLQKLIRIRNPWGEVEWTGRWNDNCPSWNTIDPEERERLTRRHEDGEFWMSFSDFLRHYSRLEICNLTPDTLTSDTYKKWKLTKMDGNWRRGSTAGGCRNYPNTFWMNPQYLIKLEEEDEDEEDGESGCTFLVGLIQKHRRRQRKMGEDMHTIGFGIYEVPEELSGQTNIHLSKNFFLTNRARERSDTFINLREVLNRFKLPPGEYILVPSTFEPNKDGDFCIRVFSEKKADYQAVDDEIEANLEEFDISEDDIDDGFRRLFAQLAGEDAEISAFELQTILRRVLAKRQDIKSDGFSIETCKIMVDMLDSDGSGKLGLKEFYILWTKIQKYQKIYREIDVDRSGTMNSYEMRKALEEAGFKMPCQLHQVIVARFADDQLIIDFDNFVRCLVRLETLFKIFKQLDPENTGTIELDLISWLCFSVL
T1 sequence (P04632 1-268 partner): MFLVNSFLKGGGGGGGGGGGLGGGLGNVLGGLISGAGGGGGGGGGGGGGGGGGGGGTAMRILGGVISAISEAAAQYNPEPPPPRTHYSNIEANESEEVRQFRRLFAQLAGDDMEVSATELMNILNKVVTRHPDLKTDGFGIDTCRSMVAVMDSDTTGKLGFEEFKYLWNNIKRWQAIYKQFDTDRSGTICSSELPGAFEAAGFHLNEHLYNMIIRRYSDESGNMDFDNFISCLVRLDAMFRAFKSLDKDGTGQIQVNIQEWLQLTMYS
The experiment in a line: Calpain inhibition continuous fluorescence (FRET) assay, Human Calpain 2/NS1. As to conditions: read-out: Human Calpain 2/NS1 IC50. The class given is biochemical. The method, boiled down: (§1)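 Buffer 50 mM Tris pH 7.5/100 mM NaCl/1 mM DTT; enzyme + cpd preinc 25C; start w/ FRET substrate + CaCl2; kinetic 490/520 nm, 10 min; slopes 1-5 min; 4-PL IC50.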

In a further test the target is T2, Human Calpain 9/NS1 (Homo sapiens, UniProt O14815).
T2 sequence (O14815 1-690): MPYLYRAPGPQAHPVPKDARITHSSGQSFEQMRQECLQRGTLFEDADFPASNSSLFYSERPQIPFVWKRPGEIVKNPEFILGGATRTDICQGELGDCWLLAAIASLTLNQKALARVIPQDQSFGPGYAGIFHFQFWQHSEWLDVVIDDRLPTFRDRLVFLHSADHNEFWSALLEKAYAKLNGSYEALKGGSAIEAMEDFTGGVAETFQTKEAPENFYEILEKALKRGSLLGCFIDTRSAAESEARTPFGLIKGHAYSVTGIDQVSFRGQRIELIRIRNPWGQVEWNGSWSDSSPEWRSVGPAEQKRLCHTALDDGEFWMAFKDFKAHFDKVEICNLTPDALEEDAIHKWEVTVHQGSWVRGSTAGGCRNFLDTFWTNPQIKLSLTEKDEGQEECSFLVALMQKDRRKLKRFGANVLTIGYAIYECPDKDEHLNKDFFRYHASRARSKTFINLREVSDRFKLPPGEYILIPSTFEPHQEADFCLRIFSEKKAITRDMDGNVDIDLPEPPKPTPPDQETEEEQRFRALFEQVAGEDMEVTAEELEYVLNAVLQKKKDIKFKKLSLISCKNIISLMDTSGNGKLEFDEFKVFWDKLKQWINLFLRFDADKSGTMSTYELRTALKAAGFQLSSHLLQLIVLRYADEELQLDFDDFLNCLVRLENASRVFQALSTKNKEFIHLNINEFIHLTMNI
T2 sequence (P04632 1-268 partner): T1 sequence (P04632 1-268 partner)
The experiment in a line: Calpain inhibition continuous fluorescence (FRET) assay, Human Calpain 9/NS1. The format is biochemical. As to conditions: read-out: Human Calpain 9/NS1 IC50. The method, boiled down:
as §1

For a further test, the target named is T3, Human Calpain 1/NS1 (Homo sapiens, UniProt P07384).
T3 sequence (P07384 1-714): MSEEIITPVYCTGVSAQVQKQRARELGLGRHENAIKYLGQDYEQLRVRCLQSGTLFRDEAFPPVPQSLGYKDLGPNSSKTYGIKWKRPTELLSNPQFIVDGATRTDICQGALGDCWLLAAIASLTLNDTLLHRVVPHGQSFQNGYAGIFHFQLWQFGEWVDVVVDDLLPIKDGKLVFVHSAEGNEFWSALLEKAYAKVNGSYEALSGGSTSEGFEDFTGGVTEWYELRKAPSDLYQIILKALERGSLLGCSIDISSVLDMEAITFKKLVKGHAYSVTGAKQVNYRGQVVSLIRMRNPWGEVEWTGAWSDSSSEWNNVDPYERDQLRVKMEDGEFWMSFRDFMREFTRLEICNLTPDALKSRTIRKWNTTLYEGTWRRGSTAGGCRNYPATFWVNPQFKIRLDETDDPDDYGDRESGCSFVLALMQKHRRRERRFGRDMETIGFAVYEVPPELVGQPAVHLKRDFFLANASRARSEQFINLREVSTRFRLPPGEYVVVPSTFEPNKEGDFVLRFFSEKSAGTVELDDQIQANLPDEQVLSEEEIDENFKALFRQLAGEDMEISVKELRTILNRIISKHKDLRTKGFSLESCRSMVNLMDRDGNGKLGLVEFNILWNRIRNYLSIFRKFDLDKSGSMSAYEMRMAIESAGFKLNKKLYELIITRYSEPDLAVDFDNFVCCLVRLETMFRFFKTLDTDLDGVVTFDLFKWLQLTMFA
T3 sequence (P04632 1-268 partner): T1 sequence (P04632 1-268 partner)
Kind of test: Calpain inhibition continuous fluorescence (FRET) assay, Human Calpain 1/NS1. The format is biochemical. Conditions: read-out: Human Calpain 1/NS1 IC50. The method, boiled down:
as §1

Test [1] concerns Calpain activity in SH-SY5Y cells (SBDP-150). Kind of test: SH-SY5Y Spectrin western blot assay (SBDP-150 breakdown product, A23187-induced). The format is cell-based. As to conditions: Homo sapiens; SH-SY5Y cells, A23187-induced SBDP-150, western blot; read-out: SH-SY5Y Spectrin IC50. In general terms: A western blot detects proteins with antibodies after separation by electrophoresis.

Test [2] has as its system Calpain activity in SH-SY5Y cells. Kind of test: SH-SY5Y + AMC fluorescence assay (Suc-LLVY-AMC substrate). The class given is cell-based. As to conditions: read-out: SH-SY5Y + AMC IC50.

Consider `Cc1cccc(-c2oncc2C(=O)NC(Cc2ccccc2)C(=O)C(N)=O)c1` (centres unmarked) [Compound 560, N-(4-amino-3,4-dioxo-1-phenylbutan-2-yl)-5-(m-tolyl)isoxazole-4-carboxamide], for which the IC50 at Human Calpain 2/NS1 was below 3 µM; on Human Calpain 9/NS1 it was below 3 µM; at Human Calpain 1/NS1, below 3 µM; in test [1] it was 10 to 25 µM; in test [2], above 25 µM.
Take `NC(=O)C(=O)C(Cc1ccccc1)NC(=O)c1cn(C(F)F)nc1-c1cncc2ccccc12` (centres unmarked) [Compound 561, N-(4-amino-3,4-dioxo-1-phenylbutan-2-yl)-1-(difluoromethyl)-3-(isoquinolin-4-yl)-1H-pyrazole-4-carboxamide]: the IC50 on Human Calpain 2/NS1 was below 3 µM; at Human Calpain 9/NS1, below 3 µM; on Human Calpain 1/NS1 it was below 3 µM; in test [1], 10 to 25 µM; in test [2], 10 to 25 µM.
In the case of `CC#Cc1nn(-c2ccccc2)cc1C(=O)NC(Cc1ccccc1)C(=O)C(N)=O` (centres unmarked) [Compound 562, N-(4-amino-3,4-dioxo-1-phenylbutan-2-yl)-1-phenyl-3-(prop-1-yn-1-yl)-1H-pyrazole-4-carb oxamide], the IC50 was above 10 µM on Human Calpain 2/NS1; above 10 µM at Human Calpain 9/NS1; above 10 µM at Human Calpain 1/NS1; above 25 µM in test [1]; below 10 µM in test [2].
Take `NC(=O)C(=O)C(Cc1ccccc1)NC(=O)c1cn(C(F)F)nc1-c1cccc2c1OCO2` (centres unmarked) [Compound 563, N-(4-amino-3,4-dioxo-1-phenylbutan-2-yl)-3-(benzo[d][1,3]dioxol-4-yl)-1-(difluoromethyl)-1H-pyrazole-4-carboxamide]: the IC50 on Human Calpain 2/NS1 was below 3 µM; on Human Calpain 9/NS1, below 3 µM; at Human Calpain 1/NS1 it was below 3 µM; in test [1], below 10 µM; in test [2], below 10 µM.
Consider `Cc1ccc(F)c(-c2nn(C(F)F)cc2C(=O)NC(Cc2ccccc2)C(=O)C(N)=O)c1` (centres unmarked) [Compound 564, N-(4-amino-3,4-dioxo-1-phenylbutan-2-yl)-1-(difluoromethyl)-3-(2-fluoro-5-methylphenyl)-1H-pyrazole-4-carboxamide], for which the IC50 on Human Calpain 2/NS1 is below 3 µM; on Human Calpain 9/NS1, below 3 µM; at Human Calpain 1/NS1, below 3 µM; in test [1] it was below 10 µM; in test [2] it was below 10 µM.
As for `Cc1cc(C)cc(-c2nn(C(F)F)cc2C(=O)NC(Cc2ccccc2)C(=O)C(N)=O)c1` (centres unmarked) [Compound 565, N-(4-amino-3,4-dioxo-1-phenylbutan-2-yl)-1-(difluoromethyl)-3-(3,5-dimethylphenyl)-1H-pyrazole-4-carboxamide], the IC50 at Human Calpain 2/NS1 was below 3 µM; on Human Calpain 9/NS1, below 3 µM; at Human Calpain 1/NS1 it was below 3 µM; in test [1] it was below 10 µM; in test [2], above 25 µM.
In the case of `Cc1ccc(F)cc1-c1nn(C(F)F)cc1C(=O)NC(Cc1ccccc1)C(=O)C(N)=O` (centres unmarked) [Compound 566, N-(4-amino-3,4-dioxo-1-phenylbutan-2-yl)-1-(difluoromethyl)-3-(5-fluoro-2-methylphenyl)-1H-pyrazole-4-carboxamide], the IC50 is below 3 µM at Human Calpain 2/NS1; below 3 µM on Human Calpain 9/NS1; below 3 µM on Human Calpain 1/NS1; 10 to 25 µM in test [1]; below 10 µM in test [2].
`Cn1cc(C(=O)NC(Cc2ccccc2)C(=O)C(N)=O)c(-c2ccc3c(c2)OCO3)n1` (centres unmarked) [Compound 567, N-(4-amino-3,4-dioxo-1-phenylbutan-2-yl)-3-(benzo[d][1,3]dioxol-5-yl)-1-methyl-1H-pyrazole-4-carboxamide]: the IC50 on Human Calpain 2/NS1 was below 3 µM; at Human Calpain 9/NS1, below 3 µM; on Human Calpain 1/NS1, below 3 µM; in test [1], below 10 µM; in test [2], below 10 µM.
For `Cn1cc(C(=O)NC(Cc2ccccc2)C(=O)C(N)=O)c(-c2ccnn2C)n1` (centres unmarked) [Compound 568, N-(4-amino-3,4-dioxo-1-phenylbutan-2-yl)-1,2′-dimethyl-1H,2′H-[3,3′-bipyrazole]-4-carboxamide], the IC50 is below 3 µM at Human Calpain 2/NS1; below 3 µM on Human Calpain 9/NS1; below 3 µM on Human Calpain 1/NS1; above 25 µM in test [1]; below 10 µM in test [2].
`Cn1cc(C(=O)NC(Cc2ccccc2)C(=O)C(N)=O)c(-c2cccc3ccccc23)n1` (centres unmarked) [Compound 569, N-(4-amino-3,4-dioxo-1-phenylbutan-2-yl)-1-methyl-3-(naphthalen-1-yl)-1H-pyrazole-4-carboxamide]: the IC50 is below 3 µM at Human Calpain 2/NS1; below 3 µM at Human Calpain 9/NS1; below 3 µM at Human Calpain 1/NS1; above 25 µM in test [1]; 10 to 25 µM in test [2].
Take `Cn1cc(C(=O)NC(Cc2ccccc2)C(=O)C(N)=O)c(-c2cccc3c2OCCO3)n1` (centres unmarked) [Compound 570, N-(4-amino-3,4-dioxo-1-phenylbutan-2-yl)-3-(2,3-dihydrobenzo[b][1,4]dioxin-5-yl)-1-methyl-1H-pyrazole-4-carboxamide]: the IC50 on Human Calpain 2/NS1 was below 3 µM; on Human Calpain 9/NS1, below 3 µM; at Human Calpain 1/NS1 it was below 3 µM; in test [1], above 25 µM; in test [2], above 25 µM.
`Cn1cc(C(=O)NC(Cc2ccccc2)C(=O)C(N)=O)c(-c2ccc3ccccc3c2)n1` (centres unmarked) [Compound 571, N-(4-amino-3,4-dioxo-1-phenylbutan-2-yl)-1-methyl-3-(naphthalen-2-yl)-1H-pyrazole-4-carboxamide]: the IC50 on Human Calpain 2/NS1 is below 3 µM; at Human Calpain 9/NS1, below 3 µM; on Human Calpain 1/NS1 it was below 3 µM; in test [1] it was above 25 µM; in test [2], above 25 µM.
`Cn1cc(C(=O)NC(Cc2ccccc2)C(=O)C(N)=O)c(-c2ccccc2C(F)F)n1` (centres unmarked) [Compound 572, N-(4-amino-3,4-dioxo-1-phenylbutan-2-yl)-3-(2-(difluoromethyl)phenyl)-1-methyl-1H-pyrazole-4-carboxamide]: the IC50 at Human Calpain 2/NS1 is below 3 µM; at Human Calpain 9/NS1 it was below 3 µM; on Human Calpain 1/NS1, below 3 µM; in test [1], above 25 µM; in test [2] it was below 10 µM.
